For series [1], the system named is H460-p53 wildtype, MDAMB468-p53^R273H, HCT116-p53 null and TOV112D-p53^R175H xenograft tumors. In words: Mouse xenograft tumor growth. The class given is in vivo. The following applies: 1 μg/g intravenously once daily vs control.
Series [2] concerns p53 response element (p53RE) in the p21 promoter, MEF cells with exogenous 248 or 273 mutations. In words: Luciferase reporter assay, p53RE of the p21 promoter. It counts as cell-based, mouse. The settings on record: MEF cell lines expressing the 248 and 273 alleles. On the procedure: (§1) To that end, luciferase activity assays were performed. Briefly, a 20-bp p53 response element (p53RE) was subcloned in the pGL3 vector to generate a luciferase reporter plasmid, which contained 20 base pairs of the p53 response element in the p21 promoter. The sequences of the 5′ site and 3′ site at −2.27 kb and −1.38 kb (SEQ ID NOs: 1 and 3) and their reverse complements (SEQ ID NOs: 2 and 4) are listed below:
(§2) The reporter plasmid was transfected to the TOV112D cells or MEF cells with exogenous 248 or 273 mutations. Cells thus-transfected were treated with NSC319726 and subjected to luciferase assays. […] This effect was not seen in MEF cell lines expressing the 248 and 273 alleles, FIG. 10b.
In general terms: A reporter such as luciferase makes a cellular process visible.

Series [3] has as its system MEF cells with exogenous p53 mutations. The experiment in a line: Apoptosis by Annexin V staining in MEF cells. The class given is cell-based, mouse. An excerpt:
Briefly, apoptosis was examined by Annexin V staining using standard methods.

The test system of series [4] is p53 wild type cell lines (H460, HCT116, MCF7 and WI38). The experiment in a line: Sensitivity of human tumor cell line system. The class given is cell-based. The settings on record: 0.1 μM to 10 μM.
Series [5] is described as follows: Toxicity assays in p53 wild type, p53 null and p53^R172H mice. The class given is in vivo. The following applies: for survival by day 4: 10 mg/kg intraperitoneally daily; for survival by day seven: 5 mg/kg. On the procedure:
Toxicity assays were performed in p53 wild type, p53 null, and p53^R172H mice to determine if in vivo p53 mutant synthetic lethality could be detected.
First, three groups of mice: […], p53^+/R172H/R172H mice, were compared.
Next, the dose was lowered to 5 mg/kg and three groups of mice (p53 wild type, p53 null, and p53^R172H/R172H) were compared.

Series [6] relates to p53 targets (p21, PUMA, and MDM2). The experiment in a line: Quantitative real-time PCR of p53 targets. It counts as cell-based, human. The settings on record: TOV112D cells, treated vs untreated, normalized with actin. On the procedure: Each treatment had three independent repeats (labeled as 1, 2, and 3); (e) Comparison of the p53 expression signatures of 319726 treated cells with that of p53 wild type, p53 null and p53R175H cell lines in response to gamma-irradiation.
Assays were carried out to compare the mRNA levels of several p53 targets (p21, PUMA, and MDM2) in the TOV112D (p53R175H), OVCAR3 (p53R248W) and SKOV3 (p53 null) upon treatment with the compounds. The relative gene expression level was normalized with the actin and the ratio of the treated level vs. untreated level was shown for each cell line.
(In general: In qPCR the cycle at which signal appears reflects the starting amount.)

Series [7] deals with p53 response element (p53RE) in the p21 promoter, TOV112D cells. In words: Luciferase reporter assay, p53RE of the p21 promoter. The class given is cell-based, human. On the procedure: as §1, §2
The test system of series [8] is TOV112D (p53^R175H) ovarian carcinoma cell line. In words: Sensitivity of human tumor cell line system. The class given is cell-based. The settings on record: 0.1 μM to 10 μM. The source says:
Five tumor cell lines with endogenous […] mutations were compared, including two cell lines containing R248W mutations and three cell lines with a R273H mutation.

Results on one compound are retold here after patent US20130345164A1, “TREATMENTS FOR CELLULAR PROLIFERATIVE DISORDERS AND IDENTIFICATION THEREOF” (UNIVERSITY OF MEDICINE AND DENTISTRY OF NEW JERSEY, priority 2010, published 2013).

Molecules are shown by their SMILES.

Consider `C/C(=N\NC(=S)N1CCC1)c1ccccn1` [NSC319726], for which the “xenograft tumor growth inhibition” value in series [1] is recorded as “inhibited mouse xenograft tumor growth in an allele specific mutant p53 dependent manner”. Besides, the “increase in luciferase activity” value in series [2] is “not seen”; in series [7], 2.5 fold. The “apoptosis response of (10)3/175” value in series [3] ((10)3/175 compared with other MEF lines) was “strongest apoptosis response”. Moreover, the “induction of apoptosis (Annexin V staining)” value in series [3] (MEF cells with exogenous p53 mutations) was “induced apoptosis”. Also, the sensitivity result in series [4] is given as “relative lack of sensitivity”; in series [8], “marked sensitivity”. Further, the “mice alive by day seven” value in series [5] (mouse, in vivo, ip, 10 mg/kg) is listed as “approximately 40%”. For the same compound, the “survival by day 4” value in series [5] (p53^+/R172H mice) is given as 30%; in series [5] (p53 wild type mice), 70%. For the same compound, the “survival by day seven” value in series [5] (p53^R172H/R172H mice) is listed as 30%; in series [5] (p53 null mice), 100%; in series [5] (p53 wild type mice), 100%. Moreover, the “induction of mRNA of p53 targets p21, PUMA, MDM2” value in series [6] is “induced all three targets”.
